Source: the NIST ThermoML archive (doi:10.1016/j.jct.2009.06.008)
Where “and” joins values, the source holds several entries; their conditions need not be identical. Identical values can stand only once.

Conditions: Crystal, Calculated from knudsen effusion weight loss

O=[N+]([O-])c1ccccc1Br [1-bromo-2-nitrobenzene]
Conditions | vapor or sublimation pressure
275.15 K | 9.5e-05 kPa and 9.4e-05 kPa
277.15 K | 0.000124 kPa and 0.000123 kPa
279.16 K | 0.000164 kPa and 0.000165 kPa
281.17 K | 0.00021 kPa and 0.000212 kPa and 0.000208 kPa
283.17 K | 0.000279 kPa and 0.00028 kPa and 0.000277 kPa
285.17 K | 0.000351 kPa and 0.000353 kPa and 0.00035 kPa
287.21 K | 0.000451 kPa and 0.000459 kPa and 0.000448 kPa
289.17 K | 0.000581 kPa and 0.000592 kPa and 0.000594 kPa
291.14 K | 0.000733 kPa and 0.000729 kPa and 0.000735 kPa
293.14 K | 0.000913 kPa and 0.000939 kPa and 0.000925 kPa
295.16 K | 0.001204 kPa and 0.00121 kPa and 0.001218 kPa

O=[N+]([O-])c1cccc(Br)c1 [1-bromo-3-nitrobenzene]
Conditions | vapor or sublimation pressure
279.57 K | 0.000143 kPa and 0.000142 kPa and 0.000141 kPa
281.21 K | 0.000184 kPa and 0.000183 kPa and 0.000181 kPa
283.14 K | 0.000238 kPa and 0.000237 kPa and 0.000236 kPa
285.16 K | 0.000299 kPa and 0.000294 kPa and 0.000301 kPa
287.19 K | 0.000398 kPa and 0.000385 kPa and 0.000381 kPa
289.39 K | 0.000507 kPa and 0.000506 kPa and 0.000496 kPa
291.16 K | 0.000649 kPa and 0.00065 kPa and 0.000635 kPa
293.15 K | 0.000817 kPa and 0.000815 kPa and 0.00079 kPa
295.17 K | 0.001067 kPa and 0.001054 kPa and 0.001033 kPa

O=[N+]([O-])c1ccc(Br)cc1 [1-bromo-4-nitrobenzene]
Conditions | vapor or sublimation pressure
289.15 K | 0.000103 kPa and 0.000101 kPa and 9.9e-05 kPa
291.12 K | 0.000122 kPa and 0.000119 kPa and 0.00012 kPa
293.14 K | 0.00017 kPa and 0.000165 kPa and 0.000161 kPa
295.15 K | 0.000209 kPa and 0.000202 kPa
297.14 K | 0.000255 kPa and 0.000248 kPa
299.15 K | 0.000332 kPa and 0.000337 kPa and 0.000333 kPa
301.13 K | 0.000427 kPa and 0.00041 kPa and 0.000409 kPa
303.14 K | 0.000526 kPa and 0.000537 kPa and 0.00052 kPa
305.14 K | 0.000644 kPa and 0.000653 kPa and 0.000624 kPa
307.14 K | 0.0008 kPa and 0.000809 kPa and 0.000788 kPa
309.15 K | 0.00105 kPa and 0.001036 kPa and 0.00101 kPa
